SMILES	melting point
Nc1cccc(Cn2c(-c3ccc(-c4ccccc4)cc3)ccc2-c2ccccc2Cl)n1	181 to 185 °C
Cc1coc(NC(=O)C(c2ccccc2)c2ccccc2)n1	209 to 211 °C
COc1ccc2c(c1)C(=O)C(Cc1c[nH]c3ccccc13)CO2 (configuration not stated)	121 to 123 °C
CCCc1nc2cccc(C(=O)OC)c2n1Cc1ccc(-c2ccccc2-c2nc(=O)o[nH]2)cc1	224 to 226 °C
Oc1cccc2[nH]c(-c3ccccc3)cc12	120 to 123 °C
COc1ccc(CS[C@@H]2C[C@@H](COc3ccccc3)N(S(C)(=O)=O)C2)cc1	92 to 94 °C
CS(=O)c1nnc(Sc2cc(C(C)(C)C)c(O)c(C(C)(C)C)c2)s1 (configuration not stated)	162 to 164 °C
O=C(NN1CCCC1)C(CS)Cc1ccccc1 (configuration not stated)	93 °C
O=C(c1ccc2n1Cc1ccccc1N(C(=O)c1ccc(-c3cccc4ccccc34)cc1)C2)N(CCO)CCO	221 to 224 °C
CC(C)Cn1c(SCc2ccccn2)nc2ccccc2c1=O	91.7 to 93.2 °C
Cn1c(=O)c(-c2ccc(Cl)cc2Cl)cc2c3cc(-c4ccno4)ccc3[nH]c21	320 to 323 °C
CCN(CC)C(=O)c1ccc(OC)cc1-c1ccccc1	64 to 65 °C
N#Cc1ccc(C(=O)c2ccc(F)cc2)c(CO)c1	85 °C
COc1ccc(-c2nc(C)[nH]c3cc(-c4ccccc4)nc2-3)cc1	225 to 227 °C
CCc1nnc2c(N(C)C)nc3ccccc3n12	155 to 158 °C
Cc1ccccc1-c1c(NC(=O)Nc2ccc(F)cc2F)c(=O)oc2ccc(C)c(C)c12	232 to 234 °C
CC(C)c1n[nH]c(Cl)c1C=NC(C#N)=C(N)C#N	145 to 150 °C
CCN1CCC(c2nc(-c3ccncc3)c(-c3ccc(F)cc3)[nH]2)CC1	242 to 244 °C
OCC1CC(n2c(Br)nc3cc(Cl)c(Cl)cc32)C(O)C1O (configuration not stated)	208 to 211 °C
COc1cc(C(C)C(=O)NCC(COC(=O)C(C)(C)C)Cc2ccc(C)c(C)c2)ccc1NS(C)(=O)=O (configuration not stated)	54 to 57 °C
CC(=O)c1cnn(-c2ccnc3cc(Cl)ccc23)c1	190 to 192 °C
c1ccc(Oc2ccc(C3(Cn4cncn4)OCCO3)cc2)cc1	100 to 102 °C
CCOC(=O)/C=C/C=C/c1ccc(OCc2ccccc2)c(OC)c1	85 to 86 °C
Cc1cc(-c2cc(=O)c3cccnc3o2)ccc1O	300 to 302 °C
CC1Cc2c(cc(C(C)(C)C)c(O)c2C(C)(C)C)S1 (configuration not stated)	96.7 °C
COC(=O)C1=C(C)N=C(OC)N(C(=O)Oc2ccc([N+](=O)[O-])cc2)C1c1ccc2nonc2c1 (configuration not stated)	180 to 183 °C

SMILES	melting point
CCOC(=O)c1cn(Cc2ccccc2)nc1OCc1ccc(OCc2nc(-c3ccco3)oc2C)c(OCC)c1	121 to 122 °C
NS(=O)(=O)c1cc2ncccc2o1	219 to 221 °C
O=c1cnc2cc3[nH]c(-c4ccncc4)nc3cc2[nH]1	> 320 °C
CC[C@@H](NC(=O)N1CC(=O)NC[C@@H](Cc2cc(Cl)ccc2OC)C1=O)c1cncc(C(=O)O)c1	138 to 140 °C
O=CNNC(C(=O)O)c1ccccc1 (configuration not stated)	137 °C
CCN(C(=O)c1ccc2nonc2c1)C1CCCCC1	51 to 52 °C
O=c1c2cc3ccccc3cc2oc2cc(OCC3CS3)cc(O)c12 (configuration not stated)	189 to 190 °C
O=C(NCCOc1ccc(CC(Oc2ccc(C(F)(F)F)cc2)C(=O)O)cc1)c1ccc(-c2ccccn2)cc1 (configuration not stated)	154 to 155 °C
Fc1ccc2[nH]c3c4c(Cl)cccc4nc-3cc2c1	201 to 204 °C
Cc1sc(-c2ccccc2)nc1CCOc1cc(COc2ccccc2CC(=O)O)on1	159 to 160 °C
COC(=O)C1=C(C)OC(C)=C(C(=O)OC)C1c1ccccc1	62.5 °C
C=CCN1CCN(c2ncc3c(=O)c(C(=O)OCC)cn(CC)c3n2)CC1	131 °C
CC(=O)SCCc1noc(C(C)c2ccc(-c3ccccc3)c(F)c2)n1 (configuration not stated)	56 to 57 °C
O=Cc1cc([N+](=O)[O-])ccc1C1SCCCS1	99 to 101 °C
O=C1c2ccccc2C(=O)N1CCCCc1ccccc1	87 to 90 °C
CCCC(=O)CN1CCC(CCN2CCN(c3cccc(C)c3C)CC2)CC1	47 °C
CCCCOc1ccc(S(=O)(=O)C2(C(=O)O)CCN(Cc3ccc(OCCN4CCCCC4)cc3)CC2)cc1	98 °C
N#CC1=C(C#N)N=CCC=N1	189 to 190 °C
O=C(O)C1=Cc2cc(OCc3ccccc3)c(OCc3ccccc3)cc2CCC1	180 to 181 °C
COc1ccc(C(=O)N2CCN(CCc3ccc(Cl)cc3)CC2)cc1	105 to 106 °C
O=C(O)C(CCCc1ccccc1)NS(=O)(=O)c1ccc(N2CCC(c3ccccc3)CC2)cc1 (configuration not stated)	59 to 62 °C
CC(=O)NCCC1Cc2c(C)c(OCc3ccccc3)c(C)c(C)c2O1 (racemic)	138 to 139 °C
Cc1cc(-c2nc3ccccc3c(=O)n2-c2ccc(F)cc2)cc(C)c1OCCO	95 to 97 °C
CC(C)Cn1nc(-c2ccc(C(F)(F)F)cc2)cc(C(=O)O)c1=O	184 to 185 °C
COc1cc(O)c(C(=O)c2ccccc2)cc1S(=O)(=O)Cl	165 to 172 °C
CNc1ccc(CCc2ccc(OCc3ccccc3)c(OCc3ccccc3)c2)cc1	61 to 65 °C

SMILES	melting point
O=C(CC[C@H]1CC[C@H](Nc2ncc3ncnc(Nc4ccc(F)c(Cl)c4)c3n2)CC1)N1CCOCC1	186 to 191 °C
CC(C)(C)c1cc(N2CCCC2=O)cc(C(C)(C)C)c1O	173 to 175 °C
COc1ccccc1NC(=O)Nc1ccc(CC(=O)O)cc1	165 to 168 °C
CCOC(=O)N1CCC(NC(=S)Nc2cccnc2NCc2ccco2)CC1	133 °C
O=C1C(Br)=C(Br)C(=O)c2c(F)cccc21	100 °C
CCN1C(=O)C(CCN2CCN(c3ccccc3OC)CC2)Sc2ccccc21 (configuration not stated)	142 to 144 °C
CCCCn1cc2c(n1)c(N)nc1ccccc12	194 to 195 °C
CC(C)N(C)c1ncc(C2CC2(C)C(N)=O)cc1Cl (configuration not stated)	86 to 87 °C
C[C@@H](NS(C)(=O)=O)[C@](O)(Cn1cncn1)c1ccc(Cl)cc1Cl (relative stereo)	177 to 180 °C
Cc1cc(N)c2cc(NC(=O)C=Cc3ccccc3C(F)(F)F)ccc2n1	272 to 273 °C
O=C1CCN(Cc2ccccc2)CC1C1c2ccccc2C=Cc2ccccc21 (configuration not stated)	167 to 169 °C
O=C(COc1cccnc1)C12CC3CC(CC(C3)C1)C2	73 to 75 °C
CCOC(=O)NC(=S)OCc1ccccc1	96 °C
O=C(O)c1ccc(C(=O)O)c(-c2nc3ccccc3[nH]2)c1	312 to 314 °C
CCSc1nc(N)c(C(N)=S)s1	180 to 183 °C
CCOC(=O)CSC1=C(C=O)CCc2c(C(=O)OCC)sc(SC)c21	102 to 103 °C
CCC(=O)N(C)c1c(C(=O)c2cccc(Cl)c2)[nH]c2cc(Cl)ccc12	194 to 195 °C
O=S(=O)(CC1CC1)c1nc(-c2ccccn2)c(-c2ccccn2)[nH]1	210 to 212 °C
Cn1c([N+](=O)[O-])cnc1COc1ccc(C#N)cc1	130 °C
COCCC1CCN(c2ccc(C#N)c3sccc23)C1 (configuration not stated)	88 to 89 °C
Cc1cc2c(-c3cccc(CCC(=O)O)c3)c(CC(=O)Nc3ccc(F)cc3C(F)(F)F)c(=O)oc2cc1Cl	212 to 214 °C
N#CC1=C(Nc2cc(F)cc(F)c2)CCC1	113 to 115 °C
O=c1ncc(Cl)cn1CCCl	167 to 168 °C
O=C1NCN(c2ccc(F)c(Cl)c2)C12CCN(C1CCC(c3ccc(F)cc3)(c3ccc(F)cc3)CC1)CC2	201 to 203 °C
CCNC(=O)N1CC(Oc2ccc(C(F)(F)F)cc2)C1	94 to 96 °C
N#Cc1ccc2nc(C(=O)NCc3cccc(CNC(=O)Cc4nc[nH]n4)c3)[nH]c(=O)c2c1	207 to 208 °C

SMILES	melting point
C#CCOc1ccc2c(C)cc(=O)oc2c1C(=O)C=Cc1ccccc1	140 to 142 °C
CCCN(CC)Cc1nc2cc(OC)c(OC)cc2c(-c2ccc(OC)c(OC)c2)c1C(=O)OCC	105 to 106 °C
COc1cc(I)cc(C(N)=O)c1	175 to 176 °C
COc1cc(OC)cc(C(=O)N2CCc3cc(OCc4ccccc4)ccc3C2=O)c1	158 to 159 °C
COc1cc(OC)cc(-c2nc[nH]c2-c2ccc(OC)c(O)c2O)c1	132 to 134 °C
OC1CSC(Oc2cc(-c3ccccn3)cc(F)c2F)C(O)C1O (configuration not stated)	162 °C
COCc1c(C(=O)OC(C)C)ncc2[nH]c3ccc(OCc4ccccc4Cl)cc3c12	135 to 141 °C
Cc1cc(Nc2cncc(NC3CCCCC3)n2)n[nH]1	194 to 196 °C
CCCCCCCCOc1ccc(-c2ncc(O)cn2)c(F)c1F	84 to 85 °C
O=[N+]([O-])C=C1CN=C(c2ccccc2)c2sccc2N1	160 to 163 °C
O=C1c2cccc(O)c2C2(OCCS2)c2c(O)cccc21	197 to 199 °C
COc1cc(OC(C)C(=O)O)c2c3c(C(N)=O)cccc3n(Cc3ccccc3)c2c1 (configuration not stated)	170 to 172 °C
Nc1ccc(N2CCN(CC(O)(Cn3cncn3)c3ccc(Cl)cc3Cl)CC2)cc1 (configuration not stated)	60 °C
Clc1c2c(nc3cn[nH]c13)CCCC2	190 to 193 °C
CCOC(=O)c1cn(CC)c2cc(-c3csc(CN(CC)C(C)=O)n3)c(F)cc2c1=O	160 to 161 °C
N#Cc1cc(-c2ccc(Cl)cc2)cnc1N	202 to 204 °C
CCCc1[nH]c(=O)oc1-c1ccnc(-c2ccccc2)c1	202 to 204 °C
CC(=O)Oc1ccc2c(c1)CCC1C2C(O)CC2(C)C(=O)CCC12 (configuration not stated)	180 to 182 °C
CN(C)C=Nc1ncc(I)c(Cl)n1	99 to 100 °C
CN(C)c1ccc(C=C2C(=O)NC(=S)NC2=O)cc1	272 °C
COC(=O)CCc1nc(I)ccc1O	145 to 148 °C
Cn1c(=S)c(C(=O)C2=C(O)CCCC2=O)nc2ccccc21	> 300 °C
CCOP(C)(=O)CC(CC(C)C)NS(=O)(=O)c1ccc(C)cc1 (configuration not stated)	96 to 105 °C
O=C(c1ccccc1)N1CCNc2ncc(I)cc21	164 to 166 °C

Reference: a melting point compilation (Tetko et al.; mined from patent text by program, amines drawn as free bases though some values may be those of a salt)
